“And” between values parts separate entries of the source, which are not always exact repeats. Identical values can stand only once.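 These data come from cells grown in 96-well plates and exposed to compound for 48 hours at five concentrations. At the GI50, growth is halved. TGI: concentration producing complete growth inhibition.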
Experiments:
Experiment in all cases: inhibition of tumour cell growth, NCI panel, 48 h
[1] = test system: PC-3 prostate
[2] = test system: MCF7 breast
[3] = test system: OVCAR-3 ovarian
[4] = test system: TK-10 renal
[5] = test system: UACC-62 melanoma
[6] = test system: 786-0 renal
[7] = test system: HT29 colon
[8] = test system: RXF 393 renal
[9] = test system: A549 NSCLC
[10] = test system: SF-268 CNS
[11] = test system: DU-145 prostate
[12] = test system: HCT-15 colon
[13] = test system: K-562 leukemia
[14] = test system: NCI-H460 lung
[15] = test system: BT-549 breast
[16] = test system: SF-539 CNS
[17] = test system: KM12 colon
[18] = test system: COLO 205 colon
[19] = test system: SW-620 colon
[20] = test system: NCI/ADR-RES ovarian
[21] = test system: CCRF-CEM leukemia
[22] = test system: SK-MEL-5 melanoma
[23] = test system: CAKI-1 renal
[24] = test system: SF-295 CNS
[25] = test system: T-47D breast
[26] = test system: SN12C renal
[27] = test system: RPMI-8226 leukemia
[28] = test system: MOLT-4 leukemia
[29] = test system: SNB-75 CNS
[30] = test system: OVCAR-4 ovarian
[31] = test system: LOX IMVI melanoma
[32] = test system: MDA-MB-231 breast
[33] = test system: M14 melanoma
[34] = test system: UO-31 renal
[35] = test system: HCT-116 colon
[36] = test system: NCI-H226 lung
[37] = test system: SK-OV-3 ovarian
[38] = test system: IGROV1 ovarian
[39] = test system: SNB-19 CNS
[40] = test system: SR leukemia
[41] = test system: MALME-3M melanoma
[42] = test system: HL-60(TB) leukemia
[43] = test system: HCC-2998 colon
[44] = test system: U251 CNS
[45] = test system: HOP-62 NSCLC
[46] = test system: SK-MEL-28 melanoma
[47] = test system: EKVX NSCLC
[48] = test system: NCI-H23 lung
[49] = test system: OVCAR-5 ovarian
[50] = test system: HS 578T breast
[51] = test system: HOP-92 NSCLC
[52] = test system: OVCAR-8 ovarian
[53] = test system: ACHN renal
[54] = test system: A498 renal
[55] = test system: SK-MEL-2 melanoma
[56] = test system: UACC-257 melanoma
[57] = test system: NCI-H522 lung
[58] = test system: MDA-MB-435

`COc1ccc2c(c1)NC(=O)CN2c1nc(NC2CC2)nc2ccccc12` was tested, and the GI50 [1] was 0.000563 µM, the TGI [1] was greater than 100 µM and the GI50 [2] was 0.000386 µM. It also gave a TGI [2] of 14.7 µM, a GI50 [3] of 0.000368 µM and a TGI [3] of 0.011 µM. It also gave a TGI [4] of 14.9 µM, a GI50 [5] of 0.000876 µM and a TGI [5] of 13.2 µM. It also gave a GI50 [6] of 0.00905 µM, a TGI [6] of 18.6 µM and a GI50 [7] of 0.000347 µM. It also gave a GI50 [8] of 0.00178 µM, a GI50 [9] of 0.00128 µM and a TGI [9] greater than 100 µM. For the same compound, the GI50 [10] was 0.00204 µM, the TGI [10] was 14.4 µM and the GI50 [11] was 0.000452 µM. The TGI [11] was 2.83 µM, the GI50 [12] was 0.000556 µM and the TGI [12] was greater than 100 µM. The GI50 [13] was 0.000336 µM, the TGI [13] was greater than 100 µM and the GI50 [14] was 0.000405 µM. It also gave a TGI [14] greater than 100 µM, a GI50 [15] of 0.00423 µM and a TGI [15] of 3.11 µM. For the same compound, the GI50 [16] was 0.00232 µM, the TGI [16] was 0.00804 µM and the GI50 [17] was 0.000396 µM. For the same compound, the TGI [17] was greater than 100 µM, the GI50 [18] was 0.000395 µM and the TGI [18] was 0.00241 µM. It also gave a GI50 [19] of 0.000383 µM, a TGI [19] greater than 100 µM and a GI50 [20] of 0.000651 µM. It also gave a TGI [20] of 0.00677 µM, a GI50 [21] of 0.000385 µM and a TGI [21] greater than 100 µM. For the same compound, the GI50 [22] was 0.000552 µM, the TGI [23] was 17.9 µM and the GI50 [24] was 0.00211 µM. The TGI [24] was 0.00611 µM and 0.0191 µM, the GI50 [25] was 0.23 µM and the TGI [25] was 7.13 µM. For the same compound, the GI50 [26] was 0.00491 µM, the TGI [26] was greater than 100 µM and the GI50 [27] was 0.00182 µM. The TGI [27] was 16.4 µM, the GI50 [28] was 0.00255 µM and the TGI [28] was greater than 100 µM. The GI50 [29] was 0.00199 µM, the TGI [29] was 18.7 µM and the TGI [30] was greater than 100 µM. It also gave a GI50 [31] of 0.000901 µM, a TGI [31] of 55.5 µM and a GI50 [32] of 0.000858 µM. For the same compound, the TGI [32] was greater than 100 µM, the GI50 [33] was 0.000367 µM and the TGI [33] was greater than 100 µM. For the same compound, the GI50 [34] was 0.031 µM, the TGI [34] was 10.2 µM and the GI50 [35] was 0.000424 µM. For the same compound, the TGI [35] was 13.3 µM, the TGI [36] was greater than 100 µM and the GI50 [37] was 0.00182 µM. The TGI [38] was 6.43 µM, the GI50 [39] was 0.00154 µM and the TGI [39] was 24.5 µM. The GI50 [40] was 0.000274 µM, the GI50 [41] was 2.01 µM and the TGI [41] was 84.7 µM. For the same compound, the GI50 [42] was 0.000503 µM, the TGI [42] was 0.00313 µM and the GI50 [43] was 0.00106 µM. The TGI [43] was 1.42 µM, the GI50 [44] was 0.00106 µM and the TGI [44] was 18.4 µM. The GI50 [45] was 0.00433 µM, the TGI [45] was 10.5 µM and the GI50 [46] was 0.847 µM. The TGI [46] was greater than 100 µM, the TGI [47] was 77.5 µM and the GI50 [48] was 0.00112 µM. It also gave a TGI [48] of 16.2 µM, a TGI [49] greater than 100 µM and a GI50 [50] of 0.00359 µM. For the same compound, the TGI [50] was 25 µM, the GI50 [51] was 2.66 µM and the TGI [51] was 17.5 µM. For the same compound, the GI50 [52] was 0.00234 µM, the TGI [52] was 46.9 µM and the TGI [53] was greater than 100 µM. It also gave a GI50 [54] of 0.00185 µM.
`c1ccc(C(NC2CCCCC2NCCNC2CCCCC2NC(c2ccccc2)(c2ccccc2)c2ccccc2)(c2ccccc2)c2ccccc2)cc1` (stereo not drawn) gave a TGI [1] greater than 100 µM, a TGI [2] of 42.1 µM and a TGI [3] greater than 100 µM. It also gave a TGI [55] greater than 100 µM, a TGI [4] greater than 100 µM and a TGI [5] greater than 100 µM. The TGI [7] was greater than 100 µM, the TGI [9] was greater than 100 µM and the TGI [10] was greater than 100 µM. It also gave a TGI [11] greater than 100 µM, a TGI [12] greater than 100 µM and a TGI [13] greater than 100 µM. The TGI [14] was greater than 100 µM, the TGI [15] was 54.1 µM and the TGI [16] was greater than 100 µM. It also gave a TGI [17] greater than 100 µM, a TGI [18] greater than 100 µM and a TGI [19] greater than 100 µM. The TGI [21] was greater than 100 µM, the TGI [22] was greater than 100 µM and the TGI [23] was greater than 100 µM. For the same compound, the TGI [24] was greater than 100 µM, the TGI [56] was greater than 100 µM and the TGI [25] was greater than 100 µM. It also gave a TGI [26] greater than 100 µM, a TGI [27] greater than 100 µM and a TGI [28] greater than 100 µM. For the same compound, the TGI [30] was greater than 100 µM, the TGI [31] was 47.7 µM and the TGI [32] was greater than 100 µM. For the same compound, the TGI [34] was 71.2 µM, the TGI [35] was 53.6 µM and the TGI [37] was greater than 100 µM. For the same compound, the TGI [38] was greater than 100 µM, the TGI [39] was greater than 100 µM and the TGI [40] was greater than 100 µM. For the same compound, the TGI [44] was 33.9 µM, the TGI [45] was greater than 100 µM and the TGI [46] was greater than 100 µM. The TGI [47] was greater than 100 µM, the TGI [48] was greater than 100 µM and the TGI [57] was 39.5 µM. For the same compound, the TGI [58] was 32.7 µM, the TGI [49] was greater than 100 µM and the TGI [50] was 45.3 µM. The TGI [51] was 33.7 µM, the TGI [52] was greater than 100 µM and the TGI [53] was greater than 100 µM. It also gave a TGI [54] of 65.5 µM.

Source: PubChem BioAssay (NCI)
